From patent publication US9744152B2, “Vitamins C and K for treating polycystic diseases” (IC-MedTech Corporation, priority 2010, dated 2017)
Marks after values point to notes of the source that are not given here.

Assays:
[1] = tested on: Pkd2^WS25/− mice; experiment: Body, liver and kidney weights in Pkd2^WS25/− mice after 6 weeks of treatment; assay type: in vivo, mouse; details: for Kidney Weight / Kidney Weight (%) / Liver Weight / Liver Weight (%): 6 weeks in drinking water; for Body Weight: 6 weeks in drinking water (VC 15 g/L; VK3 0.15 g/L; APATONE® 15 g/L + 0.15 g/L)
Text: (§1) Thirty seven PCK rats (20 females and 17 males) at age of 3 weeks were divided into four groups: (i) vitamin C (VC) treatment group: 5 females and 4 males; (ii) vitamin K3 (VK3) treatment group: 5 females and 4 males; (iii) APATONE® treatment group: 6 females and 5 males; and (iv) control group: 4 females and 4 males. Similarly, twenty Pkd2^WS25/− mice (12 females and 8 males) at age of 5 months were divided into four groups: (i) vitamin C (VC) treatment group: 3 females; (ii) vitamin K3 (VK3) treatment group: 2 females and 2 males; (iii) APATONE® treatment group: 4 females and 3 males; and (iv) control group: 3 females and 3 males.
(§2) The VC treatment groups were given vitamin C at a concentration of 15 g/L in drinking water. The VK3 treatment groups were given vitamin K3 at a concentration of 0.15 g/L in drinking water. The APATONE® treatment groups were given vitamins C and K3 at concentrations of 15 g/L and 0.15 g/L, respectively, in drinking water. The control groups were given drinking water only. Rats or mice in each group were allowed to drink freely.
(§3) The rats and mice were sacrificed after 6 weeks of treatment. The following parameters were analyzed: body weights, liver and kidney weights, serum biochemistry, renal and hepatic cystic and fibrotic areas, apoptotic and proliferation indices, expression of Cdc25A and its down-stream targets. […]

[2] = tested on: PCK rats; experiment: Body, liver and kidney weights in PCK rats after 6 weeks of treatment; assay type: in vivo, rat; details: for Kidney Weight / Kidney Weight (% bw) / Liver Weight / Liver Weight (% bw): 6 weeks in drinking water; for Body Weight: 6 weeks in drinking water (VC 15 g/L; VK3 0.15 g/L; APATONE® 15 g/L + 0.15 g/L)
Text: as §1, §2, §3

## CC1=CC(=O)c2ccccc2C1=O [VK3, menadione]
[1]
  Kidney Weight: 0.42 ± 0.01 g
  Kidney Weight (%): 1.53 ± 0.05%
  Liver Weight: 1.64 ± 0.15 g
  Liver Weight (%): 5.87 ± 0.36%
  Body Weight: 27.9 ± 1.9 g
  Body Weight (g) Change vs Ctrl: 5.8%
  Kidney Weight (% bw) Change vs Ctrl: −19.0%*
  Kidney Weight (g) Change vs Ctrl: −14.3%*
  Liver Weight (% bw) Change vs Ctrl: −27.1%*
  Liver Weight (g) Change vs Ctrl: −22.6%*
[2]; Female
  Kidney Weight: 3.78 ± 0.09 g
  Kidney Weight (% bw): 1.36 ± 0.13 % bw
  Liver Weight: 15.5 ± 0.6 g
  Liver Weight (% bw): 5.60 ± 0.13 % bw
  Body Weight: 276 ± 9 g
  Body Weight (g) Change vs Ctrl: 2.2%
  Kidney Weight (% bw) Change vs Ctrl: −8.1%*
  Kidney Weight (g) Change vs Ctrl: −5.2%*
  Liver Weight (% bw) Change vs Ctrl: −11.3%*
  Liver Weight (g) Change vs Ctrl: −9.2%*
[2]; Male
  Kidney Weight: 4.57 ± 0.13 g
  Kidney Weight (% bw): 1.11 ± 0.11 % bw
  Liver Weight: 20.8 ± 0.5 g
  Liver Weight (% bw): 5.12 ± 0.09 % bw
  Body Weight: 408 ± 16 g
  Body Weight (g) Change vs Ctrl: −1.1%
  Kidney Weight (% bw) Change vs Ctrl: −6.7%*
  Kidney Weight (g) Change vs Ctrl: −6.5%*
  Liver Weight (% bw) Change vs Ctrl: −9.8%*
  Liver Weight (g) Change vs Ctrl: −10.9%*

## O=C1O[C@H]([C@@H](O)CO)C(O)=C1O [VC, L-ascorbic acid]
[1]
  Kidney Weight: 0.46 ± 0.04 g
  Kidney Weight (%): 1.76 ± 0.16%
  Liver Weight: 2.29 ± 0.43 g
  Liver Weight (%): 9.29 ± 2.01%
  Body Weight: 26.7 ± 2.0 g
  Body Weight (g) Change vs Ctrl: 1.5%
  Kidney Weight (% bw) Change vs Ctrl: −6.7%
  Kidney Weight (g) Change vs Ctrl: −6.1%
  Liver Weight (% bw) Change vs Ctrl: 15.4%
  Liver Weight (g) Change vs Ctrl: 8.0%
[2]; Female
  Kidney Weight: 3.88 ± 0.19 g
  Kidney Weight (% bw): 1.47 ± 0.11 % bw
  Liver Weight: 16.6 ± 1.3 g
  Liver Weight (% bw): 6.36 ± 0.23 % bw
  Body Weight: 261 ± 10 g
  Body Weight (g) Change vs Ctrl: −3.3%
  Kidney Weight (% bw) Change vs Ctrl: −0.7%
  Kidney Weight (g) Change vs Ctrl: −2.8%
  Liver Weight (% bw) Change vs Ctrl: 0.8%
  Liver Weight (g) Change vs Ctrl: −2.8%
[2]; Male
  Kidney Weight: 4.95 ± 0.18 g
  Kidney Weight (% bw): 1.19 ± 0.13 % bw
  Liver Weight: 23.3 ± 1.8 g
  Liver Weight (% bw): 5.61 ± 0.14 % bw
  Body Weight: 416 ± 13 g
  Body Weight (g) Change vs Ctrl: 0.8%
  Kidney Weight (% bw) Change vs Ctrl: 0%
  Kidney Weight (g) Change vs Ctrl: 1.2%
  Liver Weight (% bw) Change vs Ctrl: −1.2%
  Liver Weight (g) Change vs Ctrl: −0.4%
